Assay [1] concerns the target T1, human XIAP_BIR3 domain purified protein (Homo sapiens, UniProt P98170).
T1 construct: purchased R & D
As to the kind of experiment: XIAP binding inhibitory activity (HTRF, b-Smac ligand). Particulars: for IC50: second symbol of cell, read-out: XIAP binding inhibition IC50 value; for inhibition at 3 µM: concentration of the test compound 3 μM, first symbol of cell, read-out: XIAP binding inhibition rate. The protocol: Human XIAP binding inhibitory activity was measured by the Homogeneous Time Resolved Fluorescence (HTRF) method with using commercially available human XIAP_BIR3 domain purified protein (R & D) and as a ligand a Smac N-terminal peptide (AVPIAQK (SEQ ID NO: 1)) (hereinafter referred to as “b-Smac”; Peptide Research Laboratories, Inc.) biotinylated at the C-terminus according to a conventional method.
The HTRF method will be described in detail below.
The test compound diluted with a reaction buffer (25 mM HEPES Buffer containing 100 mM NaCl, 0.1% BSA, and 0.1% triton X-100, pH 7.5) was added to a 384-well white shallow bottom plate (Greiner 784076) at 1 μL/well and flash centrifuged for 30 seconds. Subsequently, human XIAP_BIR3 domain purified protein was diluted with the reaction buffer to obtain a 90 nM sample diluent, and the resultant sample diluent was added to the above-mentioned white superficial plate at 4.5 μL/well and flash centrifuged for 30 seconds. Subsequently, b-Smac diluted to 90 nM with the reaction buffer was added to the above-mentioned white superficial plat at 4.5 μL/well and flash centrifuged for 30 seconds. A mixed solution of Anti-6 HIS-Cryptate (Eu^3+ Cryptate-conjugated mouse monoclonal antibody anti-6 Histidine; cisbio) and Streptavidin-XL^eat (Highgrade XL665-conjugated streptavidin; cisbio) both diluted 100-fold with HTRF detection buffer (cisbio) at a volume ratio of 1:1 was added to the above white superficial plate at 10 μL/well. After flash centrifuging the white shallow bottom plate for 30 seconds, the white shallow bottom plate was left at room temperature for 4 hours or more in the dark. The white superficial plate after being left was subjected to fluorescence intensity measurement (excitation wavelength: 320 nm, fluorescence wavelength: 665 nm and 615 nm) by EnVision (Perkin Elmer). The binding inhibition rate (%) was calculated based on the HTRF ratio in the presence of the test compound to the HTRF ratio in the absence of the test compound (fluorescence intensity at 665 nm/fluorescence intensity at 615 nm).
The XIAP binding inhibition rate (%) of test compounds was evaluated.

The target in assay [2] is T2, IRAK-M (Homo sapiens, UniProt Q9Y616).
T2 sequence (Q9Y616 1-596): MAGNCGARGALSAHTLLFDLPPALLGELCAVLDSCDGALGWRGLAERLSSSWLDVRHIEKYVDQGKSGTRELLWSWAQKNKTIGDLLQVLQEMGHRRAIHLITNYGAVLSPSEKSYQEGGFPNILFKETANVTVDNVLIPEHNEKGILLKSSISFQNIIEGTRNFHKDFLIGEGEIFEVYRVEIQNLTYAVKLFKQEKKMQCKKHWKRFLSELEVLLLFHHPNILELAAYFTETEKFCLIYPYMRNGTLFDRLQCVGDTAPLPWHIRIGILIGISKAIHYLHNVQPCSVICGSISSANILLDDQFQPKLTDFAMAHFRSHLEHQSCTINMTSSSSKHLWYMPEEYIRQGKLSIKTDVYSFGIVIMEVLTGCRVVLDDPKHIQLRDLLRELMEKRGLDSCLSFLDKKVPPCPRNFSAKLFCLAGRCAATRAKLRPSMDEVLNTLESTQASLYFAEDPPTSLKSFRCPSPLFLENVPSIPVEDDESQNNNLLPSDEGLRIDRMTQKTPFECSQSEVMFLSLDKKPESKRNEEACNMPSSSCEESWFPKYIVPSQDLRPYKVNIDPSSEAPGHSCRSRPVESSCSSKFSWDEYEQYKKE
As to the kind of experiment: IRAK-M binding inhibitory activity (KINOMEscan active site-dependent competitive assay). The arrangement: purchased Eurofins Discover X. Particulars: for remaining binding at 1 µM: concentration of the test compound 1 μM, first symbol of cell, read-out: IRAK-M binding inhibition activity % Ctrl; for IC50: second symbol of cell, read-out: IRAK-M binding inhibition IC50 value. In a few lines: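 Active site-dependent competition binding assay (KINOMEscan) against human IRAK-M. Result expressed as % Ctrl = (compound signal − positive control signal)/(DMSO signal − positive control signal) × 100, where DMSO = 100% Ctrl and control compound = 0% Ctrl.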

Drawing on patent US20220402935A1, “HETEROCYCLIC COMPOUND” (FIMECS, INC., priority 2019, published 2022), this text covers IC50, remaining binding and inhibition for 11 compounds.

Structures can show the parent of a compound that is named as a salt. Bounds are passed on as bounds.

T1 sequence (P98170 252-356 limits assumed): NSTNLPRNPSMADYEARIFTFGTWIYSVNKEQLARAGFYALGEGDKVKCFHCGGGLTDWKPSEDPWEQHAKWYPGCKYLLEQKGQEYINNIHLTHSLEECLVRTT

On to `CN[C@@H](C)C(=O)N[C@H](C(=O)N1CCN(C(=O)c2c(C(=O)N(C)CCOCCOCCOc3cc(CN4CCC(Oc5ccnc6ccsc56)CC4)on3)c3cc(F)ccc3n2C)CC1)[C@H](O)C(C)C` [Example 14, 5-fluoro-2-(4-((2S,3R)-3-hydroxy-4-methyl-2-((S)-2-(methylamino)propanamido)pentanoyl)piperazine-1-carbonyl)-N,1-dimethyl-N-(2-(2-(2-((5-((4-(thieno[3,2-b]pyridin-7-yloxy)piperidin-1-yl)methyl)isoxazol-3-yl)oxy)ethoxy)ethoxy)ethyl)-1H-indole-3-carboxamide], for which the IC50 in assay [1] was 3000 to 30000 nM. Further, the remaining binding at 1 µM in assay [2] was below 25%.
Regarding `CN[C@@H](C)C(=O)N[C@H](C(=O)N1CCN(C(=O)c2ccc3c(c2)cc(C)n3CCOCCOCCOc2cc(CN3CCC(Oc4ccnc5ccsc45)CC3)on2)C[C@H]1C)C1CCCCC1` [Example 56, (S)-N-((S)-1-cyclohexyl-2-((R)-2-methyl-4-(2-methyl-1-(2-(2-(2-((5-((4-(thieno[3,2-b]pyridin-7-yloxy)piperidin-1-yl)methyl)isoxazol-3-yl)oxy)ethoxy)ethoxy)ethyl)-1H-indole-5-carbonyl)piperazin-1-yl)-2-oxoethyl)-2-(methylamino)propanamide], the IC50 in assay [1] is 300 to 3000 nM. Further, in assay [2], the remaining binding at 1 µM lay in the range of 50 to 75%.
For the compound `CN[C@@H](C)C(=O)N[C@H](C(=O)N1CCN(C(=O)c2c(C(=O)NCCOCCOCCOc3cc(C(C)N4CCC(Oc5ccnc6cc(C)sc56)CC4)on3)c3cc(F)c(F)cc3n2C)CC1)C1CCCCC1` (stereo partly drawn) [Example 9, 2-(4-((S)-2-cyclohexyl-2-((S)-2-(methylamino)propanamido)acetyl)piperazine-1-carbonyl)-5,6-difluoro-1-methyl-N-(2-(2-(2-((5-(1-(4-((2-methylthieno[3,2-b]pyridin-7-yl)oxy)piperidin-1-yl)ethyl)isoxazol-3-yl)oxy)ethoxy)ethoxy)ethyl)-1H-indole-3-carboxamide], the 50% inhibitory concentration (IC50) in assay [1] lay within 300 to 3000 nM; in assay [2], 30 to 100 nM.
Taken in the same sequence, the figures for `C[C@@H]1CN(CC(=O)N2CCN(C(=O)c3cc4cc(F)c(F)cc4n3C)C[C@H]2C)[C@@H](COCCOCCOCCOCCOc2cc(CN3CCC(Oc4ccnc5ccsc45)CC3)on2)CN1` [Example 19, 1-((R)-4-(5,6-difluoro-1-methyl-1H-indole-2-carbonyl)-2-methylpiperazin-1-yl)-2-((2R,5R)-5-methyl-2-(13-((5-((4-(thieno[3,2-b]pyridin-7-yloxy)piperidin-1-yl)methyl)isoxazol-3-yl)oxy)-2,5,8,11-tetraoxatridecyl)piperazin-1-yl)ethan-1-one] were 300 to 3000 nM and 300 to 1000 nM.
With `CN[C@@H](C)C(=O)N[C@H](C(=O)N1CCN(C(=O)c2c(C(=O)NCCOCCOCCOc3cc(CN4CCC(Oc5ccnc6cc(C)sc56)CC4)on3)c3cc(F)c(F)cc3n2C)CC1)C1CCCCC1` [Example 8, 2-(4-((S)-2-cyclohexyl-2-((S)-2-(methylamino)propanamido)acetyl)piperazine-1-carbonyl)-5,6-difluoro-1-methyl-N-(2-(2-(2-((5-((4-((2-methylthieno[3,2-b]pyridin-7-yl)oxy)piperidin-1-yl)methyl)isoxazol-3-yl)oxy)ethoxy)ethoxy)ethyl)-1H-indole-3-carboxamide], the IC50 in assay [1] fell in the range of 300 to 3000 nM; in assay [2] it was 30 to 100 nM.
Regarding `CN[C@@H](C)C(=O)N[C@H](C(=O)N1CCN(C(=O)c2c(OCCOCCOCCOc3cc(CN4CCC(Oc5ccnc6ccsc56)CC4)on3)c3cc(F)c(F)cc3n2C)CC1)C1CCCCC1` [Example 21, (S)-N-((S)-1-Cyclohexyl-2-(4-(5,6-difluoro-1-methyl-3-(2-(2-(2-((5-((4-(thieno[3,2-b]pyridin-7-yloxy)piperidin-1-yl)methyl)isoxazol-3-yl)oxy)ethoxy)ethoxy)ethoxy)-1H-indole-2-carbonyl)piperazin-1-yl)-2-oxoethyl)-2-(methylamino)propanamide hydrochloride], in assay [1], the inhibition at 3 µM lay within 25 to 50%. Also, the remaining binding at 1 µM in assay [2] was in the range of 25 to 50%.
Turning to `CN[C@@H](C)C(=O)N[C@H](C(=O)N1CCC[C@H]1c1nc(C(=O)c2cccc(OCCOCCOc3cc(CN4CCC(Oc5ccnc6ccsc56)CC4)on3)c2)cs1)C1CCCCC1` [Example 58, (S)-N-((S)-1-cyclohexyl-2-oxo-2-((S)-2-(4-(3-(2-(2-((5-((4-(thieno[3,2-b]pyridin-7-yloxy)piperidin-1-yl)methyl)isoxazol-3-yl)oxy)ethoxy)ethoxy)benzoyl)thiazol-2-yl)pyrrolidin-1-yl)ethyl)-2-(methylamino)propanamide], in assay [1], the IC50 is below 300 nM. Moreover, the remaining binding at 1 µM in assay [2] was below 25%.
On to `CN[C@@H](C)C(=O)N[C@H](C(=O)N1CCN(C(=O)c2c(OCCOCCOCCOCCOc3cc(CN4CCC(Oc5ccnc6ccsc56)CC4)on3)c3cc(F)c(F)cc3n2C)CC1)C1CCCCC1` [Example 23, (S)-N-((S)-1-cyclohexyl-2-(4-(5,6-difluoro-1-methyl-3-(2-(2-(2-(2-((5-((4-(thieno[3,2-b]pyridin-7-yloxy)piperidin-1-yl)methyl)isoxazol-3-yl)oxy)ethoxy)ethoxy)ethoxy)ethoxy)-1H-indole-2-carbonyl)piperazin-1-yl)-2-oxoethyl)-2-(methylamino)propanamide], for which the inhibition at 3 µM in assay [1] was in the range of 25 to 50%. Moreover, the remaining binding at 1 µM in assay [2] lay within 25 to 50%.
`CN[C@@H](C)C(=O)N[C@H](C(=O)N1CCN(C(=O)c2c(C(=O)N(C)CCOCCOCCOc3cc(CN4CCC(Oc5ccnc6ccsc56)CC4)on3)c3cc(F)c(F)cc3n2C)C[C@H]1C)C1CCCCC1` [Example 11, 2-((R)-4-((S)-2-cyclohexyl-2-((S)-2-(methylamino)propanamido)acetyl)-3-methylpiperazine-1-carbonyl)-5,6-difluoro-N,1-dimethyl-N-(2-(2-(2-((5-((4-(thieno[3,2-b]pyridin-7-yloxy)piperidin-1-yl)methyl)isoxazol-3-yl)oxy)ethoxy)ethoxy)ethyl)-1H-indole-3-carboxamide]: in assay [1], the concentration for half-maximal inhibition (IC50) is 3000 to 30000 nM. Further, the remaining binding at 1 µM in assay [2] was below 25%.
Turning to `CN[C@@H](C)C(=O)N[C@H](C(=O)N1CCN(C(=O)c2c(OCCOCCOc3cc(CN4CCC(Oc5ccnc6ccsc56)CC4)on3)c3cc(F)c(F)cc3n2C)CC1)C1CCCCC1` [Example 22, (S)-N-((S)-1-cyclohexyl-2-(4-(5,6-difluoro-1-methyl-3-(2-(2-((5-((4-(thieno[3,2-b]pyridin-7-yloxy)piperidin-1-yl)methyl)isoxazol-3-yl)oxy)ethoxy)ethoxy)-1H-indole-2-carbonyl)piperazin-1-yl)-2-oxoethyl)-2-(methylamino)propanamide], the inhibition at 3 µM in assay [1] was 25 to 50%. Also, the remaining binding at 1 µM in assay [2] lay in the range of 25 to 50%.
For the compound `CN[C@@H](C)C(=O)N[C@H](C(=O)N1CCN(C(=O)c2cc3cc(F)ccc3n2CC(=O)N2C[C@@H](O)C[C@H]2COc2cc(CN3CCC(Oc4ccnc5ccsc45)CC3)on2)[C@@H](C)C1)C1CCCCC1` [Example 42, (S)-N-((S)-1-cyclohexyl-2-((S)-4-(5-fluoro-1-(2-((2S,4S)-4-hydroxy-2-(((5-((4-(thieno[3,2-b]pyridin-7-yloxy)piperidin-1-yl)methyl)isoxazol-3-yl)oxy)methyl)pyrrolidin-1-yl)-2-oxoethyl)-1H-indole-2-carbonyl)-3-methylpiperazin-1-yl)-2-oxoethyl)-2-(methylamino)propanamide], the inhibition at 3 µM in assay [1] is above 25%. The IC50 in assay [2] was in the range of 100 to 300 nM.
